From ChEMBL document CHEMBL1201861, “Genomics of Drug Sensitity in Cancer screening data, Wellcome Trust Sanger Institute”

Key:
CPC-N = experiment: cells; assay type: functional, cell-based; conditions: Homo sapiens;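 note: growth inhibition of CPC-N cells, with a cell viability assay as the readout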
Description: SANGER: Inhibition of human CPC-N cell growth in a cell viability assay.

DMS-153 = experiment: cells; assay type: functional, cell-based; conditions: Homo sapiens
Description: SANGER: Inhibition of human DMS-153 cell growth in a cell viability assay.

DSH1 = experiment: cells; assay type: functional, cell-based, Homo sapiens; conditions: Homo sapiens, DSH1;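 note: growth inhibition of human DSH1 cells, measured with a cell viability readout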
Description: SANGER: Inhibition of human DSH1 cell growth in a cell viability assay.

DU-4475 = experiment: cells; assay type: functional, cell-based; conditions: Homo sapiens
Description: SANGER: Inhibition of human DU-4475 cell growth in a cell viability assay.

EB2 = experiment: cells; assay type: functional, cell-based; conditions: Homo sapiens;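 note: growth inhibition of EB2 cells, read out with a cell viability assay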
Description: SANGER: Inhibition of human EB2 cell growth in a cell viability assay.

GB-1 = experiment: cells; assay type: functional, cell-based, Homo sapiens; conditions: Homo sapiens, GB-1;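 note: growth of GB-1 cells judged by a viability assay, IC50 marks the concentration inhibiting growth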
Description: SANGER: Inhibition of human GB-1 cell growth in a cell viability assay.

HDLM-2 = experiment: cells; assay type: functional, cell-based; conditions: Homo sapiens;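 note: cell viability assay measuring suppression of HDLM-2 proliferation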
Description: SANGER: Inhibition of human HDLM-2 cell growth in a cell viability assay.

HT-144 = experiment: cells; assay type: functional, cell-based, Homo sapiens; conditions: Homo sapiens, HT-144
Description: SANGER: Inhibition of human HT-144 cell growth in a cell viability assay.

LC4-1 = experiment: cells; assay type: functional, cell-based; conditions: Homo sapiens;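 note: growth inhibition of LC4-1 cells, read out with a cell viability assay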
Description: SANGER: Inhibition of human LC4-1 cell growth in a cell viability assay.

LS-123 = experiment: cells; assay type: functional, cell-based, Homo sapiens; conditions: Homo sapiens, LS-123
MC-CAR = experiment: cells; assay type: functional, cell-based; conditions: Homo sapiens;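 note: growth inhibition of the human MC-CAR cell line, read out by a cell viability assay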
Description: SANGER: Inhibition of human MC-CAR cell growth in a cell viability assay.

MOLT-13 = experiment: cells; assay type: functional, cell-based; conditions: Homo sapiens;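 note: IC50 for suppression of MOLT-13 cell growth, read out with a cell viability assay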
Description: SANGER: Inhibition of human MOLT-13 cell growth in a cell viability assay.

NALM-6 = experiment: cells; assay type: functional, cell-based; conditions: Homo sapiens;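 note: growth inhibition of NALM-6 cells, read out with a cell viability assay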
Description: SANGER: Inhibition of human NALM-6 cell growth in a cell viability assay.

NCCIT = experiment: SANGER: Inhibition of human NCCIT cell growth in a cell viability assay.; assay type: functional, cell-based
NCI-H1395 = experiment: cells; assay type: functional, cell-based, Homo sapiens; conditions: Homo sapiens, NCI-H1395;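 note: cell viability assay read-out quantifying reduced proliferation of human NCI-H1395 cells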
Description: SANGER: Inhibition of human NCI-H1395 cell growth in a cell viability assay.

NCI-H1522 = experiment: cells; assay type: functional, cell-based; conditions: Homo sapiens;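 note: growth inhibition of NCI-H1522 cells, read out with a cell viability assay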
Description: SANGER: Inhibition of human NCI-H1522 cell growth in a cell viability assay.

NCI-H524 = experiment: cells; assay type: functional, cell-based; conditions: Homo sapiens;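 note: growth inhibition of human NCI-H524 cells, read out through a cell viability assay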
Description: SANGER: Inhibition of human NCI-H524 cell growth in a cell viability assay.

NCI-H64 = experiment: cells; assay type: functional, cell-based; conditions: Homo sapiens;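 note: growth inhibition of NCI-H64 cells, read out with a cell viability assay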
Description: SANGER: Inhibition of human NCI-H64 cell growth in a cell viability assay.

NCI-H748 = experiment: cells; assay type: functional, cell-based; conditions: Homo sapiens;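 note: growth inhibition of NCI-H748 cells, measured by a cell viability assay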
Description: SANGER: Inhibition of human NCI-H748 cell growth in a cell viability assay.

NCI-H889 = experiment: cells; assay type: functional, cell-based; conditions: Homo sapiens;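 note: cell growth inhibition of the cell line, read out with a viability assay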
Description: SANGER: Inhibition of human NCI-H889 cell growth in a cell viability assay.

REH = experiment: cells; assay type: functional, cell-based; conditions: Homo sapiens;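 note: growth inhibition of REH cells determined with a cell viability read-out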
Description: SANGER: Inhibition of human REH cell growth in a cell viability assay.

RPMI 8402 = experiment: SANGER: Inhibition of human RPMI-8402 cell growth in a cell viability assay.; assay type: functional, cell-based
SIG-M5 = experiment: cells; assay type: functional, cell-based; conditions: Homo sapiens;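 note: cell viability assay read-out, measuring how strongly growth of cultured human SIG-M5 cells is inhibited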
Description: SANGER: Inhibition of human SIG-M5 cell growth in a cell viability assay.

SR = experiment: cells; assay type: functional, cell-based; conditions: Homo sapiens
Description: SANGER: Inhibition of human SR cell growth in a cell viability assay.

ST486 = experiment: SANGER: Inhibition of human ST486 cell growth in a cell viability assay.; assay type: functional, cell-based
TALL-1 = experiment: cells; assay type: functional, cell-based; conditions: Homo sapiens;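 note: growth inhibition of cultured human TALL-1 cells, read out by a cell viability assay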
Description: SANGER: Inhibition of human TALL-1 cell growth in a cell viability assay.

A3-KAW = experiment: cells; assay type: functional, cell-based; conditions: Homo sapiens;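 note: growth inhibition of human A3-KAW cells, read out with a cell viability assay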
Description: SANGER: Inhibition of human A3-KAW cell growth in a cell viability assay.

BC-3 = experiment: cells; assay type: functional, cell-based; conditions: Homo sapiens;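 note: cell viability assay measuring growth inhibition of human BC-3 cells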
Description: SANGER: Inhibition of human BC-3 cell growth in a cell viability assay.

TE-441-T = experiment: cells; assay type: functional, cell-based; conditions: Homo sapiens
Description: SANGER: Inhibition of human TE-441-T cell growth in a cell viability assay.

TE-6 = experiment: cells; assay type: functional, cell-based, Homo sapiens; conditions: Homo sapiens, TE-6;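 note: growth inhibition of TE-6 cells, read out with a cell viability assay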
Description: SANGER: Inhibition of human TE-6 cell growth in a cell viability assay.

THP-1 = experiment: cells; assay type: functional, cell-based; conditions: Homo sapiens;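 note: growth inhibition of THP-1 cells, read out via a cell viability assay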
Description: SANGER: Inhibition of human THP-1 cell growth in a cell viability assay.

TUR = experiment: cells; assay type: functional, cell-based; conditions: Homo sapiens;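 note: growth inhibition of human TUR cells, read out with a cell viability assay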
Description: SANGER: Inhibition of human TUR cell growth in a cell viability assay.

U-698-M = experiment: cells; assay type: functional, cell-based; conditions: Homo sapiens
Description: SANGER: Inhibition of human U-698-M cell growth in a cell viability assay.

no-11 = experiment: cells; assay type: functional, cell-based, Homo sapiens; conditions: Homo sapiens;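 note: growth inhibition of human NO-11 cells, read out with a cell viability assay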
Description: SANGER: Inhibition of human no-11 cell growth in a cell viability assay.

CGTH-W-1 = experiment: cells; assay type: functional, cell-based, Homo sapiens; conditions: Homo sapiens, CGTH-W-1;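 note: growth inhibition of human CGTH-W-1 cells measured by cell viability assay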
Description: SANGER: Inhibition of human CGTH-W-1 cell growth in a cell viability assay.

CMK = experiment: cells; assay type: functional, cell-based; conditions: Homo sapiens;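 note: growth inhibition of CMK cells, read out as cell viability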
Description: SANGER: Inhibition of human CMK cell growth in a cell viability assay.

DU-145 = experiment: cells; assay type: functional, cell-based, Homo sapiens; conditions: Homo sapiens, DU-145
Description: SANGER: Inhibition of human DU-145 cell growth in a cell viability assay.

G-361 = experiment: cells; assay type: functional, cell-based, Homo sapiens; conditions: Homo sapiens, G-361
H4 = experiment: cells; assay type: functional, cell-based; conditions: Homo sapiens
Description: SANGER: Inhibition of human H4 cell growth in a cell viability assay.

HSC-4 = experiment: cells; assay type: functional, cell-based, Homo sapiens; conditions: Homo sapiens, HSC-4;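 note: growth inhibition of human HSC-4 cells, read out with a cell viability assay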
Description: SANGER: Inhibition of human HSC-4 cell growth in a cell viability assay.

HT-1080 = experiment: cells; assay type: functional, cell-based, Homo sapiens; conditions: Homo sapiens, HT-1080
Description: SANGER: Inhibition of human HT-1080 cell growth in a cell viability assay.

HT55 = experiment: cells; assay type: functional, cell-based, Homo sapiens; conditions: Homo sapiens, HT55;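 note: cell viability readout measuring growth inhibition of human HT55 cells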
Description: SANGER: Inhibition of human HT55 cell growth in a cell viability assay.

J82 = experiment: cells; assay type: functional, cell-based; conditions: Homo sapiens;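 note: growth inhibition of J82 cells, read out with a cell viability assay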
Description: SANGER: Inhibition of human J82 cell growth in a cell viability assay.

MEL-JUSO = experiment: cells; assay type: functional, cell-based, Homo sapiens; conditions: Homo sapiens, MEL-JUSO;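 note: growth inhibition of human MEL-JUSO cells, read out with a cell viability assay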
Description: SANGER: Inhibition of human MEL-JUSO cell growth in a cell viability assay.

NCI-H1573 = experiment: cells; assay type: functional, cell-based; conditions: Homo sapiens;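 note: growth inhibition of NCI-H1573 cells, read out with a cell viability assay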
Description: SANGER: Inhibition of human NCI-H1573 cell growth in a cell viability assay.

NCI-H1792 = experiment: cells; assay type: functional, cell-based, Homo sapiens; conditions: Homo sapiens, NCI-H1792;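 note: growth inhibition of human NCI-H1792 cells, read out as cell viability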
Description: SANGER: Inhibition of human NCI-H1792 cell growth in a cell viability assay.

NCI-H441 = experiment: cells; assay type: functional, cell-based; conditions: Homo sapiens;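 note: growth inhibition of NCI-H441 cells, read out with a cell viability assay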
Description: SANGER: Inhibition of human NCI-H441 cell growth in a cell viability assay.

NCI-H522 = experiment: cells; assay type: functional, cell-based, Homo sapiens; conditions: Homo sapiens, NCI-H522;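 note: cell viability assay measuring growth inhibition of human NCI-H522 cells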
Description: SANGER: Inhibition of human NCI-H522 cell growth in a cell viability assay.

PA-1 = experiment: cells; assay type: functional, cell-based, Homo sapiens; conditions: Homo sapiens, PA-1;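 note: IC50 for suppression of PA-1 cell proliferation, determined with a cell viability read-out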
Description: SANGER: Inhibition of human PA-1 cell growth in a cell viability assay.

PC-14 = experiment: cells; assay type: functional, cell-based, Homo sapiens; conditions: Homo sapiens, PC-14;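 note: cell viability assay measuring inhibition of PC-14 cell growth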
Description: SANGER: Inhibition of human PC-14 cell growth in a cell viability assay.

SK-MEL3 = experiment: cells; assay type: functional, cell-based, Homo sapiens, SK-MEL-3; conditions: Homo sapiens, SK-MEL3;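 note: growth inhibition of human SK-MEL-3 cells, read out with a cell viability assay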
Description: SANGER: Inhibition of human SK-MEL-3 cell growth in a cell viability assay.

SNU-423 = experiment: cells; assay type: functional, cell-based, Homo sapiens; conditions: Homo sapiens, SNU-423
Description: SANGER: Inhibition of human SNU-423 cell growth in a cell viability assay.

23132-87 = experiment: cells; assay type: functional, cell-based, Homo sapiens; conditions: Homo sapiens
Description: SANGER: Inhibition of human 23132-87 cell growth in a cell viability assay.

AU565 = experiment: cells; assay type: functional, cell-based, Homo sapiens; conditions: Homo sapiens, AU565;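 note: cell viability assay measuring growth inhibition of human AU565 cells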
Description: SANGER: Inhibition of human AU565 cell growth in a cell viability assay.

COLO-680N = experiment: cells; assay type: functional, cell-based, Homo sapiens; conditions: Homo sapiens, COLO-680N;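 note: cell viability assay used to measure inhibition of COLO-680N cell growth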
Description: SANGER: Inhibition of human COLO-680N cell growth in a cell viability assay.

CN1CCN(CCOc2cc(OC3CCOCC3)c3c(Nc4c(Cl)ccc5c4OCO5)ncnc3c2)CC1 [SARACATINIB] was tested, and the IC50 (CPC-N) was > 2000 nM, the IC50 (DMS-153) was > 2000 nM and the IC50 (DSH1) was > 2000 nM. The IC50 (DU-4475) was > 2000 nM, the IC50 (EB2) was > 2000 nM and the IC50 (GB-1) was 1800 nM. The IC50 (HDLM-2) was > 2000 nM, the IC50 (HT-144) was > 2000 nM and the IC50 (LC4-1) was > 2000 nM. For the same compound, the IC50 (LS-123) was > 2000 nM, the IC50 (MC-CAR) was > 2000 nM and the IC50 (MOLT-13) was > 2000 nM. For the same compound, the IC50 (NALM-6) was > 2000 nM, the IC50 (NCCIT) was 732 nM and the IC50 (NCI-H1395) was > 2000 nM. For the same compound, the IC50 (NCI-H1522) was > 2000 nM, the IC50 (NCI-H524) was > 2000 nM and the IC50 (NCI-H64) was > 2000 nM. The IC50 (NCI-H748) was > 2000 nM, the IC50 (NCI-H889) was > 2000 nM and the IC50 (REH) was > 2000 nM. The IC50 (RPMI 8402) was > 2000 nM, the IC50 (SIG-M5) was > 2000 nM and the IC50 (SR) was > 2000 nM. For the same compound, the IC50 (ST486) was 1460 nM, the IC50 (TALL-1) was > 2000 nM and the IC50 (A3-KAW) was > 2000 nM. For the same compound, the IC50 (BC-3) was > 2000 nM, the IC50 (TE-441-T) was > 2000 nM and the IC50 (TE-6) was > 2000 nM. For the same compound, the IC50 (THP-1) was > 2000 nM, the IC50 (TUR) was > 2000 nM and the IC50 (U-698-M) was > 2000 nM. The IC50 (no-11) was > 2000 nM, the IC50 (CGTH-W-1) was > 2000 nM and the IC50 (CMK) was > 2000 nM.
With CNC(=O)c1cc(Oc2ccc(NC(=O)Nc3ccc(Cl)c(C(F)(F)F)c3)cc2)ccn1 [SORAFENIB] the IC50 (CPC-N) was > 4000 nM, the IC50 (DMS-153) was > 4000 nM and the IC50 (DSH1) was > 4000 nM. For the same compound, the IC50 (DU-4475) was > 4000 nM, the IC50 (EB2) was > 4000 nM and the IC50 (GB-1) was > 4000 nM. The IC50 (HDLM-2) was > 4000 nM, the IC50 (HT-144) was > 4000 nM and the IC50 (LC4-1) was > 4000 nM. For the same compound, the IC50 (LS-123) was > 4000 nM, the IC50 (MC-CAR) was > 4000 nM and the IC50 (MOLT-13) was > 4000 nM. For the same compound, the IC50 (NALM-6) was > 4000 nM, the IC50 (NCCIT) was > 4000 nM and the IC50 (NCI-H1395) was > 4000 nM. For the same compound, the IC50 (NCI-H1522) was > 4000 nM, the IC50 (NCI-H524) was > 4000 nM and the IC50 (NCI-H64) was > 4000 nM. For the same compound, the IC50 (NCI-H748) was > 4000 nM, the IC50 (NCI-H889) was > 4000 nM and the IC50 (REH) was > 4000 nM. The IC50 (RPMI 8402) was > 4000 nM, the IC50 (SIG-M5) was 2420 nM and the IC50 (SR) was > 4000 nM. The IC50 (ST486) was 3840 nM, the IC50 (TALL-1) was > 4000 nM and the IC50 (A3-KAW) was 1880 nM. For the same compound, the IC50 (BC-3) was > 4000 nM, the IC50 (TE-441-T) was > 4000 nM and the IC50 (TE-6) was > 4000 nM. The IC50 (THP-1) was > 4000 nM, the IC50 (TUR) was > 4000 nM and the IC50 (U-698-M) was > 4000 nM. The IC50 (no-11) was > 4000 nM, the IC50 (CGTH-W-1) was 250 nM and the IC50 (CMK) was > 4000 nM.
Cn1cncc1[C@@](N)(c1ccc(Cl)cc1)c1ccc2c(c1)c(-c1cccc(Cl)c1)cc(=O)n2C [TIPIFARNIB] was tested, and the IC50 (CPC-N) was 14800 nM, the IC50 (DMS-153) was > 16000 nM and the IC50 (DSH1) was 8530 nM. It also gave an IC50 (DU-145) of 8660 nM, an IC50 (DU-4475) of 2190 nM and an IC50 (EB2) of 2720 nM. The IC50 (G-361) was 1140 nM, the IC50 (GB-1) was 3700 nM and the IC50 (H4) was 1220 nM. For the same compound, the IC50 (HDLM-2) was > 16000 nM, the IC50 (HSC-4) was > 16000 nM and the IC50 (HT-1080) was 10300 nM. The IC50 (HT-144) was 1450 nM, the IC50 (HT55) was > 16000 nM and the IC50 (J82) was 4180 nM. It also gave an IC50 (LC4-1) of 2550 nM, an IC50 (LS-123) of 2110 nM and an IC50 (MC-CAR) of 9070 nM. It also gave an IC50 (MEL-JUSO) of 23.4 nM, an IC50 (NALM-6) of 36.2 nM and an IC50 (NCCIT) of 1280 nM. For the same compound, the IC50 (NCI-H1395) was > 16000 nM, the IC50 (NCI-H1522) was > 16000 nM and the IC50 (NCI-H1573) was 5900 nM. The IC50 (NCI-H1792) was > 16000 nM, the IC50 (NCI-H441) was 13600 nM and the IC50 (NCI-H522) was 2400 nM. For the same compound, the IC50 (NCI-H524) was > 16000 nM, the IC50 (NCI-H64) was > 16000 nM and the IC50 (NCI-H748) was > 16000 nM. The IC50 (NCI-H889) was > 16000 nM, the IC50 (PA-1) was 1340 nM and the IC50 (PC-14) was > 16000 nM. For the same compound, the IC50 (REH) was 59.2 nM, the IC50 (RPMI 8402) was 1280 nM and the IC50 (SIG-M5) was < 62.5 nM. It also gave an IC50 (SK-MEL3) of 4980 nM, an IC50 (SNU-423) of 705 nM and an IC50 (SR) of 1790 nM. For the same compound, the IC50 (ST486) was 1260 nM, the IC50 (TALL-1) was > 16000 nM and the IC50 (23132-87) was 6700 nM. For the same compound, the IC50 (A3-KAW) was 901 nM, the IC50 (AU565) was 1790 nM and the IC50 (BC-3) was 2980 nM. For the same compound, the IC50 (TE-441-T) was > 16000 nM, the IC50 (TE-6) was 7210 nM and the IC50 (THP-1) was > 16000 nM. The IC50 (TUR) was 871 nM, the IC50 (U-698-M) was 3990 nM and the IC50 (no-11) was 4010 nM. The IC50 (CGTH-W-1) was 5010 nM, the IC50 (CMK) was 151 nM and the IC50 (COLO-680N) was 5630 nM.
